Data taken from patent US20070049578A1, “Cinnamamide compounds as metabotropic glutamate receptor antagonists” (AstraZeneca AB, priority 2005, published 2007).

What follows are compounds tested against T1, human mGluR5d (Homo sapiens, UniProt P41594) (assay: Functional assessment of mGluR5 antagonism in cell lines expressing mGluR5d (FLIPR [Ca2+]i mobilization and/or IP3 turnover; not stated which assay gave the values)). Settings: assays described herein (FLIPR / IP3), cells expressing human mGluR5d.
T1 construct: expressed in transfected cells; host or cells: GHEK (human embryonic kidney cells expressing glutamate transporter) for the IP3 assay
T1 sequence (P41594 21-942 isoform P41594-3 limits assumed): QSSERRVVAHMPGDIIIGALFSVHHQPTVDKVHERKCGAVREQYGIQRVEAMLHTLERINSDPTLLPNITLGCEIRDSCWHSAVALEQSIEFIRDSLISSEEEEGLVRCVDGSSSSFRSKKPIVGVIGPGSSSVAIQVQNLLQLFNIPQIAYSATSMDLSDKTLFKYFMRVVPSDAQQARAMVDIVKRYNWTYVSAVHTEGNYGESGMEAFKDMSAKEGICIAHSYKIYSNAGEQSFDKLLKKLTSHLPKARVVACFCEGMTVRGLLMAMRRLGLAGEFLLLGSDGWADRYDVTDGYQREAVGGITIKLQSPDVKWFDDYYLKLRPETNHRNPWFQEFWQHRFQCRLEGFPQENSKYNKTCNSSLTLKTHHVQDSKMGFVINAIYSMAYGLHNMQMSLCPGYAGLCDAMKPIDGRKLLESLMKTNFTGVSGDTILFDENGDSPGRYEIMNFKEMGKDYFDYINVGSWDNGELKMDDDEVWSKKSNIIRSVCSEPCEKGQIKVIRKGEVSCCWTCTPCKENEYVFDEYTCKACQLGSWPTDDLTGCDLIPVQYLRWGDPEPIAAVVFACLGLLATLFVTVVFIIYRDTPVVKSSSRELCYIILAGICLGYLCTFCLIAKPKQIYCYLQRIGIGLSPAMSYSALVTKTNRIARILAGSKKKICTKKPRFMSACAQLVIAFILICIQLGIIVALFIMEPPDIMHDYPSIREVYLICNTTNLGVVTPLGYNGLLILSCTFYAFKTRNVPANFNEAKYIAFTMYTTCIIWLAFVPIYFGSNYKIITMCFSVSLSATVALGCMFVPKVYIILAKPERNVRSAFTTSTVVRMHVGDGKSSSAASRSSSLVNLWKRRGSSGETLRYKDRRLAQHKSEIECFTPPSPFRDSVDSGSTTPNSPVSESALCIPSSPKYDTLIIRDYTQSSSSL
Format: cell-based
Source text: (§1) The pharmacological properties of the compounds of the invention can be analyzed using standard assays for functional activity. Examples of glutamate receptor assays are well known in the art as described in for example Aramori et al., Neuron 8:757 (1992), Tanabe et al., Neuron 8:169 (1992), Miller et al., J. Neuroscience 15: 6103 (1995), Balazs, et al., J. Neurochemistry 69:151 (1997). The methodology described in these publications is incorporated herein by reference. Conveniently, the compounds of the invention can be studied by means of an assay that measures the mobilization of intracellular calcium, [Ca^2+]i in cells expressing mGluR5.
Intracellular calcium mobilization was measured by detecting changes in fluorescence of cells loaded with the fluorescent indicator fluo-3. Fluorescent signals were measured using the FLIPR system (Molecular Devices). A two addition experiment was used that could detect compounds that either activate or antagonize the receptor.
For FLIPR analysis, cells expressing human mGluR5d were seeded on collagen coated clear bottom 96-well plates with black sides and analysis of [Ca^2+]i mobilization was done 24 hours after seeding.
FLIPR experiments were done using a laser setting of 0.800 W and a 0.4 second CCD camera shutter speed. Each FLIPR experiment was initiated with 160 μL of buffer present in each well of the cell plate. After each addition of the compound, the fluorescence signal was sampled 50 times at 1 second intervals followed by 3 samples at 5 second intervals. Responses were measured as the peak height of the response within the sample period.
EC50 and IC50 determinations were made from data obtained from 8-point concentration response curves (CRC) performed in duplicate. Agonist CRC were generated by scaling all responses to the maximal response observed for the plate. Antagonist block of the agonist challenge was normalized to the average response of the agonist challenge in 14 control wells on the same plate.
We have validated a secondary functional assay for mGluR5d based on Inositol Phosphate (IP3) turnover. IP3 accumulation is measured as an index of receptor mediated phospholipase C turnover. GHEK cells stably expressing the human mGluR5d receptors were incubated with [3H] myo-inositol overnight, washed three times in HEPES buffered saline and pre-incubated for 10 minutes with 10 mM LiCl. Compounds (agonists) were added and incubated for 30 minutes at 37° C. Antagonist activity was determined by pre-incubating test compounds for 15 minutes, then incubating in the presence of glutamate (80 μM) or DHPG (30 μM) for 30 minutes. Reactions were terminated by the addition of perchloric acid (5%). Samples were collected and neutralized, and inositol phosphates were separated using Gravity-Fed Ion-Exchange Columns.
Functional Assessment of mGluR5 Antagonism in Cell Lines Expressing mGluR5D
as §1, with “The” for “The pharmacological”, “pharmacological” for “functional”, “Conveniently, the compounds of the invention can be studied by means of an assay that measures the mobilization of intracellular calcium, [Ca^2+]i in cells expressing mGluR5.” left out

IC50 [nM]	Compound
10	O=C(/C=C/c1cccc(Cl)c1)N1CCN(c2ncccc2[N+](=O)[O-])CC1 [Example 11.6, 1-[(2E)-3-(3-chlorophenyl)prop-2-enoyl]-4-(3-nitro-pyridin-2-yl)piperazine]
33	C[C@@H]1CN(c2ncccc2C#N)CCN1C(=O)/C=C/c1cccc(Br)c1 [Example 11.22, 2-{(3R)-4-[(2E)-3-(3-bromo-phenyl)prop-2-enoyl]-3-methylpiperazin-1-yl}nicotinonitrile]
1110	CCOC(=O)N1CCN(C(=O)/C=C/c2cccc(Cl)c2)CC1 [Example 11.4, ethyl 4-[(2E)-3-(3-chloro-phenyl)prop-2-enoyl]piperazine-1-carboxylate]
293	C[C@@H]1CN(c2ncc(F)cc2C#N)CCN1C(=O)/C=C/c1cccc(OC(F)F)c1 [Example 11.28, 2-((3R)-4-{(2E)-3-[3-(difluoromethoxy)phenyl]prop-2-enoyl}-3-methylpiperazin-1-yl)-5-fluoronicotinonitrile]
384	COCC1CN(c2nccnc2C#N)CCN1C(=O)/C=C/c1cccc(Cl)c1 (centres unmarked) [Example 29.1, 3-[4-[(2E)-3-(3-chlorophenyl)prop-2-enoyl]-3-(methoxymethyl)piperazin-1-yl]pyrazine-2-carbonitrile]
